The values below come from publication PMC10746053, “Development of Novel Pyrrole Derivatives and Their Cinnamic Hybrids as Dual COX-2/LOX Inhibitors” (Molecules, 2023).

The term IC50 denotes the concentration that gives 50% inhibition.

Data set [1] concerns the target T1, ovine COX-2 (Ovis aries, UniProt P79208).
T1 sequence (P79208 17-603): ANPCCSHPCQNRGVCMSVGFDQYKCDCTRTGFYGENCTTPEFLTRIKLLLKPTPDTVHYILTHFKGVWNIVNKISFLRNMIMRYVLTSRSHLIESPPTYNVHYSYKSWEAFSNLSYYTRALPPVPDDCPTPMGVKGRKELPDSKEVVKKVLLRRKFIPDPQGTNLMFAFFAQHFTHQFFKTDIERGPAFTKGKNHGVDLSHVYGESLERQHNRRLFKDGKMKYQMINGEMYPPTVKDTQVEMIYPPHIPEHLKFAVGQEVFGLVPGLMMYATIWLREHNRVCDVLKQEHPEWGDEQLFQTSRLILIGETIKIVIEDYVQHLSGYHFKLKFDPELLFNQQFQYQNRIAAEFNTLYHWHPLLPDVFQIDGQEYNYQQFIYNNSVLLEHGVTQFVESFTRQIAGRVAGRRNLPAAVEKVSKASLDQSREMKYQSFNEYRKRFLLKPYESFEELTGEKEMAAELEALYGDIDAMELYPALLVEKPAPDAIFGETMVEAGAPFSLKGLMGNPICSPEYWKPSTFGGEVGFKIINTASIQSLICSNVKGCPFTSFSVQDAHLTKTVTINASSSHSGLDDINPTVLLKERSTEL
In words: Inhibition of ovine cyclooxygenase-2 (TMPD co-substrate). The note with it: for inhibition at 100 µM: read-out: COX-2 Inh. % at 100 μM, 100 μM, ovine COX-2.
Procedure: The oxidized TMPD has an absorbance maximum at 590 nm. COXs require heme (Fe^3+-protoporphyrin IX) as a cofactor which may dissociate from the protein during its purification. Therefore, in the in vitro enzymatic assay of ovine COX-2 inhibition, heme is added to ensure maximal enzyme activity [54]. […] The in vitro COX-2 inhibitory activity was determined using arachidonic acid (AA) as a substrate and N,N,N′,N′-tetramethyl-p-phenylenediamine (TMPD) as a co-substrate in a buffer solution of Tris:HCl (pH 8.5) [27]. Ten microliters of the DMSO solution of the compound of interest were added in a test tube containing 730 μL of buffer Tris:HCl (pH 8.5), 50 μL of heme, 10 μL of COX-2 and 100 μL of TMPD. […] A blank determination was used first to serve as a negative control.

Data set [2] is described as follows: Experimental lipophilicity as RM values by reversed-phase TLC. Format: physicochemical. The note with it: RPTLC, methanol/water 70/30 v/v, five measurements. From the text:
Lipophilicity is one of the most studied physicochemical properties in the drug discovery process and is frequently employed in structure–activity relationship (SAR) studies. It contributes to the ADMET (absorption, distribution, metabolism, excretion, toxicity) properties, solubility, permeability to the potency and efficacy of drugs. […] In TLC, the retention parameter, RF, is defined as the ratio between the migration distances of the compound and of the mobile phase, both measured from the sample application position. The term RM was introduced to facilitate a linear relationship with the log P values, and it is defined as similar to the capacity factor, k, in HPLC.
Reversed-phase thin-layer chromatography (RPTLC) was used for the determination of RM values. Silica gel plates were saturated with 5% v/v liquid paraffin in petroleum ether. The mobile phase consisted of a methanol/water mixture (70/30, v/v). The plates were developed in closed chromatography tanks saturated with the mobile phase. Spots were detected under UV light or after exposure to iodine vapor. RM values were calculated from the corresponding Rf values (from five individual measurements) using […]. RM = log[(1/Rf) − 1], (2) where Rf is obtained by dividing the distance covered by the sample by the distance covered by the mobile phase.

The target of data set [3] is T2, soybean lipoxygenase isoenzyme-1 (SLOX-1) (Glycine max, UniProt P08170).
T2 construct: purchased Sigma Chemical, Co. (St. Louis, MO, USA)
T2 sequence (P08170 1-839): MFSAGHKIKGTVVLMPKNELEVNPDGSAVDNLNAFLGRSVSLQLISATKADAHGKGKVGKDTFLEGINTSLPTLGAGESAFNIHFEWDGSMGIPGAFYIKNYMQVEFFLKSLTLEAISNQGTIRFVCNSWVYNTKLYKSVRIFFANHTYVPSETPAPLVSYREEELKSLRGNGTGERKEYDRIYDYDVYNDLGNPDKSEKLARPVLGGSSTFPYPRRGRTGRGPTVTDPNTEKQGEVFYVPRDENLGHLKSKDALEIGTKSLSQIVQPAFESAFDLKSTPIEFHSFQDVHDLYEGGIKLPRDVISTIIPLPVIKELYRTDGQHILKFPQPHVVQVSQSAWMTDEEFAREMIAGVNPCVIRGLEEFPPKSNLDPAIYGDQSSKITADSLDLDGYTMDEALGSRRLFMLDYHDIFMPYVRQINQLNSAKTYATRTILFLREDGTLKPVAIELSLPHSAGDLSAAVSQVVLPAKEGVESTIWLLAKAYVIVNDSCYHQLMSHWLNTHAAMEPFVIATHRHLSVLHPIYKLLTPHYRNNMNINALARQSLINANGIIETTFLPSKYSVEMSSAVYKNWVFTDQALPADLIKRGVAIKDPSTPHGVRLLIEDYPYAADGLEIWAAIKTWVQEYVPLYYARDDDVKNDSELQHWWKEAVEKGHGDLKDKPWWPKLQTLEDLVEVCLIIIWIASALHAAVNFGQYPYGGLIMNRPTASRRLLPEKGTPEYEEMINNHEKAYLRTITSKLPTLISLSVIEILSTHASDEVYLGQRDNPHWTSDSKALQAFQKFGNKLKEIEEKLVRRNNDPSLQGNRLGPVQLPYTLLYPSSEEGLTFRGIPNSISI
In words: Inhibition of soybean lipoxygenase in vitro. Format: biochemical. The note with it: soybean LOX; for IC50: pH 9.00, ± SD, read-out: LOX Inh. IC50. As for the experimental part: In vitro anti-LOX activities were measured against soybean lipoxygenase isoenzyme-1 (SLOX-1), which is widely used as a model for mammalian LOXs.
An in vitro study was conducted as reported previously. The tested compounds were dissolved in DMSO (100 µM) and incubated at room temperature with sodium linoleate (0.1 mL) as a substrate and 0.2 mL of a soybean lipoxygenase solution in a buffer solution of Tris:HCl (pH 9.00).

Data set [4] can be described thus: Inhibition of linoleic acid lipid peroxidation (AAPH). The note with it: 37 °C, ± SD. From the text:
It is widely known that oxidative stress can induce lipid peroxidation. One of the major end products of the latter process are lipid-derived aldehydes, such as malondialdehyde (MDA), which is more chemically stable and membrane-permeable than ROS. These lipid aldehydes can participate in cross-linking with DNA and proteins and subsequently facilitate the development of various pathological states. Herein, we used the water-soluble 2,2′-azobis(2-methylpropionamidine) dihydrochloride (AAPH) as a free radical initiator for the in vitro antioxidant assay due to its ability to generate alkylperoxy radicals in the presence of oxygen molecules at 37 °C [53]. […] Pyrroles 1 and 2 with high lipophilicity (ClogP of 1 = 5.7, ClogP of 2 = 5.05; RM of 1 = 0.3076, RM of 2 = 0.0116) and molecular volume (MV of 1 = 318, MV of 2 = 290) values appeared to be weak antioxidants (34% and 33% at 100 μM, respectively). […] The presence of a bulkier substituent Ar^2 decreased the anti-lipid peroxidation activity of 5 (36% at 100 μM) compared to 8 (58% at 100 μM).
In vitro enzymatic assay was conducted as reported in previous studies. 2,2′-Azobis(2-methylpropionamidine) dihydrochloride (AAPH) was used as a controllable source of thermally produced alkylperoxy free radicals. The production of conjugated diene hydroperoxides via the oxidation of sodium linoleate in an aqueous dispersion at 37 °C was monitored at 234 nm. The results were compared to the reference compound, trolox (93%) (Table 2).

Another data set deals with paw edema. The note with it: Figure 1; cited from earlier work.
The test system of a further data set is 5-LOX. Particulars: Figure 1; cited from earlier work.
A further data set deals with COX-1. The note with it: Figure 1; cited from earlier work.
The test system of a further data set is COX-2. Particulars: Figure 1; cited from earlier work.
For data set [5] the following is noted: cited from earlier work.
Details of data set [6]: method as in doi:10.3390/M1314. Particulars: Molinspiration software; cited from earlier work.
On the set-up of data set [7]: method as in doi:10.3390/M1314. Particulars: RPTLC; cited from earlier work.
The target in data set [8] is T1, ovine COX-2. More on the design: purchased Cayman. Particulars: read-out: COX-2 Inh. IC50; cited from earlier work.
Data set [9] addresses T2, soybean lipoxygenase isoenzyme-1 (SLOX-1). The note with it: soybean LOX; read-out: LOX Inh. IC50; cited from earlier work.

“And” between values parts separate entries of the source, which are not always exact repeats. Identical values can stand only once. Like-named read-outs stand apart in the source and are kept apart here.

On to `CN(C)c1ccc(-c2cn(C(=O)/C=C/c3ccccc3)cc2C(=O)c2ccc(Cl)cc2)cc1` [compound 6, (E)-1-(3-(4-chlorobenzoyl)-4-(4-(dimethylamino)phenyl)-1H-pyrrol-1-yl)-3-phenylprop-2-en-1-one], for which the IC50 against ovine COX-2 [1] came to 7 ± 0.6 µM; in data set [3], 27.5 ± 1.3 µM. Also, in [2], the RM was −0.4771. In addition, the “ILP % at 100 μM (inhibition of lipid peroxidation)” value in data set [4] (100 µM) is 62% and 61.6 ± 2.3%.

Consider `COc1ccc(C=NNC(=O)c2sc3ccccc3c2Cl)cc1OC` [III], for which the “% paw edema reduction (in vivo)” value in the data set with paw edema is reported as 89.8%. Moreover, the IC50 in the data set with 5-LOX is 1.87 µM; in the data set with COX-1 it was 2.9 µM; in the data set with COX-2, 0.68 µM.

`CN(C)c1ccc(/C=C/c2c[nH]cc2C(=O)c2ccc(Cl)cc2)cc1` [compound 1, (E)-(4-chlorophenyl) (4-(4-(dimethylamino)styryl)-1H-pyrrol-3-yl)methanone]: the results for the IC50 (on ovine COX-2 [1]; in data set [3]) were 10 ± 0.8 µM and 51.5 ± 1.7 µM, respectively. In data set [2], this molecule had an RM of 0.3076. The “ILP % at 100 μM (inhibition of lipid peroxidation)” value in data set [4] (100 µM) was 34% and 33.8 ± 1.3%.

Turning to `O=C(O)/C=C/c1ccccc1` [Cinnamic acid, reference compound], the “ILP % at 100 μM (inhibition of lipid peroxidation)” value in data set [5] was 78 ± 3.2%.

On to `COc1ccc(/C=C2\SC(=S)N(NC(=O)c3sc4ccccc4c3Cl)C2=O)cc1OC` [II], for which the “% paw edema reduction (in vivo)” value with paw edema is 93.26%. Also, the half-maximal inhibitory concentration (IC50) in the data set with 5-LOX was 2.33 µM; with COX-1, 3.4 µM.

As to `Cc1c(C)c2c(c(C)c1O)CCC(C)(C(=O)O)O2` (centres unmarked) [Trolox, reference compound], in data set [4], the “ILP % at 100 μM (inhibition of lipid peroxidation)” value stood at 93 ± 2.5%.

As for `O=C(c1ccccc1)c1c[nH]cc1-c1ccccc1` [compound 4], in data set [6], the miLogP is on record as 3.96. Also, in [5] (100 µM), the “ILP % at 100 μM (inhibition of lipid peroxidation)” value is 44% and 44.3 ± 1.1%. Also, the RM in data set [7] is −0.4102. In addition, the values for the IC50 (at ovine COX-2 [8]; in [9]) were 0.65 ± 0.1 µM and 100 ± 3.3 µM, respectively.

As for `Cc1ccc(C(C)C)c(O)c1/C=N/NC(=O)c1cc(-c2ccccc2)n[nH]1` [IV], the “% paw edema reduction (in vivo)” value with paw edema was 81.93%. Also, the figures for the concentration for half-maximal inhibition (IC50) with 5-LOX, in the data set on COX-1 and in the data set with COX-2 were 3.05 ± 0.067 µM, 10.3 ± 0.1 µM and 0.068 ± 0.01 µM, respectively.

Turning to `O=C(c1ccccc1)c1cn(C(=O)/C=C/c2ccccc2)cc1-c1ccccc1` [compound 8, (E)-1-(3-Benzoyl-4-Phenyl-1H-Pyrrol-1-Yl)-3-Phenylprop-2-En-1-One], in data set [6], the miLogP is 6.26. Also, the “ILP % at 100 μM (inhibition of lipid peroxidation)” value in data set [5] (100 µM) is 58% and 58.1 ± 1.8%. Further, in data set [7], the RM is on record as −0.4771. The IC50 at ovine COX-2 [8] was 6 ± 0.1 µM; in data set [9] it was 39 ± 2.3 µM.

`CN(C)c1ccc(-c2cn(C(=O)/C=C/c3ccccc3)cc2C(=O)c2cccs2)cc1` [compound 7, (E)-1-(3-(4-(dimethylamino)phenyl)-4-(thiophene-2-carbonyl)-1H-pyrrol-1-yl)-3-phenylprop-2-en-1-one]: the IC50 was determined as 7.2 ± 0.3 µM against ovine COX-2 [1] and 35 ± 1.6 µM in [3]. For the same molecule, the “ILP % at 100 μM (inhibition of lipid peroxidation)” value in [4] (100 µM) was 31% and 31.1 ± 1.1%.

`CN(C)c1ccc(-c2c[nH]cc2C(=O)c2ccc(Cl)cc2)cc1` [compound 2, (4-chlorophenyl) (4-(4-(dimethylamino)phenyl)-1H-pyrrol-3-yl) methanone]: the inhibition at 100 µM on ovine COX-2 [1] turned out to be 17%. The same molecule showed an RM in data set [2] of 0.0116. Besides, in [3], the IC50 was found to be 7.5 ± 0.5 µM. Moreover, the “ILP % at 100 μM (inhibition of lipid peroxidation)” value in data set [4] (100 µM) is 33% and 32.8 ± 0.8%.

As to `COc1cc(/C=c2\c(=O)[nH]n3c(=O)c4ccccc4nc23)cc(OC)c1OC` [I], the IC50 in the data set on 5-LOX was 2.3 ± 0.13 µM; in the data set on COX-1 it was 0.668 ± 0.0212 µM; in the data set with COX-2, 0.047 ± 0.0027 µM.

As to `CN(C)c1ccc(/C=C/c2cn(C(=O)/C=C/c3ccccc3)cc2C(=O)c2ccccc2)cc1` [compound 5, (E)-1-(3-benzoyl-4-((E)-4-(dimethylamino)styryl)-1H-pyrrol-1-yl)-3-phenylprop-2-en-1-one], the IC50 came to 0.55 ± 0.3 µM against ovine COX-2 [1] and 30 ± 1.6 µM in [3]. Also, the RM in data set [2] is recorded as −0.4174. The “ILP % at 100 μM (inhibition of lipid peroxidation)” value in data set [4] (100 µM) is 36% and 36.4 ± 0.4%.

As to `CN(C)c1ccc(-c2c[nH]cc2C(=O)c2cccs2)cc1` [compound 3, (4-(4-(dimethylamino)phenyl)-1H-pyrrol-3-yl) (thiophen-2-yl) methanone], the inhibition at 100 µM at ovine COX-2 [1] stood at 12%; in data set [3] (pH 9, 100 μM, pH 9.00, read-out: LOX Inh. % at 100 μM) it was 43%. This molecule also came in with an RM in data set [2] of −0.3340. Also, the “ILP % at 100 μM (inhibition of lipid peroxidation)” value in data set [4] is “inactive”; in [4] (100 µM), “no action at all and no”.
